Article PMC8819291, “Adaptively evolved human oral actinomyces‐sourced defensins show therapeutic potential” (EMBO Molecular Medicine, 2021)
Marks after values point to notes of the source that are not given here. Where a SMILES comes first, the peptide text is derived from it. Bridges are numbered along the chain shown (N, C = ends).

Columns and labels:
HL‐60 cells = assay: Peptide-induced MCP-1 release (ELISA); assay type: cell-based, human; conditions: 24 h
Procedure: A549 and HL‐60 cells were purchased from the Cell Resource Center of the Chinese Academy of Medical Sciences (Beijing, China). They were tested for mycoplasma contamination with the Mycoplasma Detection Kit (Solarbio, China) and only negative cultures were used in our experiments. The cells were cultured in complete Dulbecco’s Modified Eagle Medium (DMEM) supplemented with 10% fetal bovine serum (FBS), penicillin (100 units/ml), and streptomycin ([…]) at 37°C in 5% CO2. The culture medium was changed every 2 days. Cells were passaged every 4–5 days with 0.25% trypsin (Gibco, USA). For enzyme‐linked immunosorbent assay (ELISA) (Hara et al, [2008]), A549 or HL‐60 cells were seeded in six‐well plates at a density of 1 × 10^5 cells/well and were incubated at 37°C in 5% CO2 overnight. Medium was aspirated and replaced with fresh complete DMEM supplemented with 10% FBS or serum‐free medium, both containing different concentrations of polypeptides for 24 h. Then, the supernatants were harvested for quantification of the IL‐8 amount in A549 by the Human CXCL8/IL‐8 Quantikine ELISA Kit (R&D Systems Inc., Minneapolis, MN, USA) and the MCP‐1 amount in HL‐60 by the Human MCP‐1 ELISA Kit (Boster Biological Technology Co., Ltd, Wuhan, China) as per the manufactures’ instructions.

[1] = system: Streptococcus pneumoniae TIGR4; assay: Inhibition-zone assay (lethal concentration); assay type: cell-based; conditions: THY, 5% CO2, 37°C
Description: (§1) Bacterial media used here included: Luria‐Bertani (LB) medium, THY medium (30 g Todd Hewitt broth and 5 g Yeast extract per liter), and tryptic soy broth (TSB) (Oxoid, Basingstoke, UK); Broth medium and brain–heart infusion (BHI) medium (Beijing Landbridge technology Limited by Share Ltd., Beijing, China); Potato dextrose (PD) medium (self‐prepared).
(§2) In brief, an overnight bacterial culture from a single colony was inoculated into fresh medium and grew to late log‐phase. A 10‐μl aliquot of each culture was diluted in 6‐ml pre‐heated medium containing 0.8% agar. The mixture was spread on a 9‐cm Petri dish, giving a depth of 1 mm. After settling, 3‐mm wells were punched in the plate and then 2‐μl peptide samples of different concentrations were added to each well. The agar plates were incubated overnight at indicated temperatures (Table EV4). A lethal concentration (C L ) was calculated from a plot of d^2 against log n, where d is the diameter (in cm) and n is the amount of sample applied in the well (in nmol). The plot is linear, and thus C L can be calculated from the slope (k) and the intercept (m) of this plot.

[2] = system: Staphylococcus aureus J706; assay: Inhibition-zone assay (lethal concentration); assay type: cell-based; conditions: Broth Medium, 37°C
Description: as §1, §2

[3] = system: Staphylococcus aureus J685; assay: Inhibition-zone assay (lethal concentration); assay type: cell-based; conditions: Broth Medium, 37°C
Description: as §1, §2

[4] = system: Streptomyces scabiei CGMCC 4.1765 (ATCC 49173); assay: Inhibition-zone assay (lethal concentration); assay type: cell-based; conditions: Tryptone Soy Broth (TSB), 30°C
Description: as §1, §2

[5] = system: Streptococcus salivarius CGMCC 1.2498 (ATCC 7073); assay: Inhibition-zone assay (lethal concentration); assay type: cell-based; conditions: Broth Medium, 37°C
Description: as §1, §2

[6] = system: Methicillin‐resistant Staphylococcus aureus P1374; assay: Inhibition-zone assay (lethal concentration); assay type: cell-based; conditions: Broth Medium, 37°C
Description: as §1, §2

[7] = system: Bacillus subtilis CGMCC 1.2428; assay: Inhibition-zone assay (lethal concentration); assay type: cell-based; conditions: LB, 37°C
Description: as §1, §2

[8] = system: penicillin‐resistant Staphylococcus aureus P1383; assay: Inhibition-zone assay (lethal concentration); assay type: cell-based; conditions: Broth Medium, 37°C
Description: as §1, §2

[9] = system: Methicillin‐resistant Staphylococcus aureus P1386; assay: Inhibition-zone assay (lethal concentration); assay type: cell-based; conditions: Broth Medium, 37°C
Description: as §1, §2

[10] = system: Streptococcus pneumoniae ST556; assay: Inhibition-zone assay (lethal concentration); assay type: cell-based; conditions: THY, 5% CO2, 37°C
Description: as §1, §2

[11] = system: Streptomyces griseus NBRC 13350; assay: Inhibition-zone assay (lethal concentration); assay type: cell-based; conditions: PD, 28°C
Description: as §1, §2

[12] = system: Bacillus megaterium CGMCC 1.0459; assay: Inhibition-zone assay (lethal concentration); assay type: cell-based; conditions: LB, 37°C
Description: as §1, §2

[13] = system: Staphylococcus aureus J708; assay: Inhibition-zone assay (lethal concentration); assay type: cell-based; conditions: Broth Medium, 37°C
Description: as §1, §2

[14] = system: Streptococcus pneumoniae ST556 (StrR); assay: Inhibition-zone assay (lethal concentration); assay type: cell-based; conditions: streptomycin‐resistant strain; THY, 5% CO2, 37°C
Description: as §1, §2

[15] = system: Streptococcus pneumoniae D39; assay: Inhibition-zone assay (lethal concentration); assay type: cell-based; conditions: THY, 5% CO2, 37°C
Description: as §1, §2

[16] = system: Staphylococcus aureus J710; assay: Inhibition-zone assay (lethal concentration); assay type: cell-based; conditions: Broth Medium, 37°C
Description: as §1, §2

[17] = system: Enterococcus faecalis V583 (ATCC 700802); assay: Inhibition-zone assay (lethal concentration); assay type: cell-based; conditions: BHI, 37°C
Description: as §1, §2

MRSA P1374 = assay: Cytoplasmic accumulation of UMP; assay type: cell-based, Staphylococcus aureus; conditions: 20 × C L, 30 min; RP-HPLC, UV 260 nm
Procedure: To analyze the cytoplasmic nucleotide pool, we carried out the cytoplasmic UMP accumulation experiment according to the literature (Brötz et al, [1997]) with some modifications. MRSA P1374 cells were grown in 40‐ml broth medium at 37°C to an OD600 of 0.5. The culture was supplemented with 130 μg/ml chloramphenicol. […] After 30 min of incubation, UMP was extracted from the harvested cells by stirring them into boiling water. The suspension was then centrifuged (43,000 g, 60 min) at 4°C and the supernatant was lyophilized and dissolved in 400 μl of 50 mM ammonium acetate (pH 5.2) and adjusted to pH 2.0 with acetic acid. After acidification, the supernatant was fractionated by RP‐HPLC on Hypersil ODS (250 × 4.6 mm; Thermo Scientific) and UMP was eluted from the column with a linear gradient from 0 to 40% methanol in 50 mM NH4Ac (pH 5.2) within 40 min with a flow rate of 1 ml/min. UV absorbance was monitored at 260 nm. UMP was identified by ultraperformance liquid chromatography–high resolution mass spectrometry (UPLC‐HRMS) and MALDI‐TOF. Both methods yielded consistent results.

CC[C@H](C)[C@@H]1NC(=O)[C@H](CCCCN)NC(=O)CNC(=O)[C@H](CCCNC(=N)N)NC(=O)[C@@H]2CSSC[C@H](NC(=O)CNC(=O)[C@H](Cc3ccccc3)NC(=O)CN)C(=O)N3CCC[C@H]3C(=O)N[C@@H](Cc3c[nH]c4ccccc34)C(=O)N[C@@H](CC(N)=O)C(=O)N[C@@H](C)C(=O)N[C@@H](Cc3ccc(O)cc3)C(=O)N[C@@H](CCC(=O)O)C(=O)N[C@H]3CSSC[C@H](NC(=O)[C@H]([C@@H](C)O)NC(=O)[C@H](CCC(N)=O)NC(=O)[C@H](CCCNC(=N)N)NC1=O)C(=O)N[C@@H](Cc1c[nH]cn1)C(=O)N[C@H](C(=O)N[C@@H](Cc1ccc(O)cc1)C(=O)O)CSSC[C@H](NC(=O)[C@H](Cc1c[nH]cn1)NC(=O)[C@H](CCCNC(=N)N)NC(=O)[C@H](CC(=O)O)NC3=O)C(=O)N[C@@H](C(C)C)C(=O)N[C@@H](CO)C(=O)N[C@@H](CCCCN)C(=O)NCC(=O)N[C@@H](Cc1ccc(O)cc1)C(=O)N[C@@H]([C@@H](C)O)C(=O)NCC(=O)NCC(=O)N[C@@H](CC(N)=O)C(=O)N2 [AMSIN] (H-GFGCPWNAYECDRHCVSKGYTGGNCRGKIRQTCHCY-OH; disulfide 4-25, 11-33, 15-35; N-terminus and C-terminus assumed)
MCP-1 (HL‐60 cells; FBS-containing medium, 25 μg/mL, replicate 1): 380 pg/mL | MCP-1 (HL‐60 cells; FBS-containing medium, 25 μg/mL, replicate 2): 485 pg/mL | MCP-1 (HL‐60 cells; FBS-containing medium, 25 μg/mL, replicate 3): 359 pg/mL | MCP-1 (HL‐60 cells; FBS-containing medium, 50 μg/mL, replicate 1): 453 pg/mL | MCP-1 (HL‐60 cells; FBS-containing medium, 50 μg/mL, replicate 2): 523 pg/mL | MCP-1 (HL‐60 cells; FBS-containing medium, 50 μg/mL, replicate 3): 432 pg/mL | MCP-1 (HL‐60 cells; FBS-containing medium, 100 μg/mL, replicate 1): 419 pg/mL | MCP-1 (HL‐60 cells; FBS-containing medium, 100 μg/mL, replicate 2): 423 pg/mL | MCP-1 (HL‐60 cells; FBS-containing medium, 100 μg/mL, replicate 3): 398 pg/mL | MCP-1 (HL‐60 cells; Serum-Free medium, 25 μg/mL, replicate 1): 393 pg/mL | MCP-1 (HL‐60 cells; Serum-Free medium, 25 μg/mL, replicate 2): 431 pg/mL | MCP-1 (HL‐60 cells; Serum-Free medium, 25 μg/mL, replicate 3): 372 pg/mL | MCP-1 (HL‐60 cells; Serum-Free medium, 50 μg/mL, replicate 1): 447 pg/mL | MCP-1 (HL‐60 cells; Serum-Free medium, 50 μg/mL, replicate 2): 450 pg/mL | MCP-1 (HL‐60 cells; Serum-Free medium, 50 μg/mL, replicate 3): 426 pg/mL | MCP-1 (HL‐60 cells; Serum-Free medium, 100 μg/mL, replicate 1): 418 pg/mL | MCP-1 (HL‐60 cells; Serum-Free medium, 100 μg/mL, replicate 2): 427 pg/mL | MCP-1 (HL‐60 cells; Serum-Free medium, 100 μg/mL, replicate 3): 397 pg/mL | Lethal concentration (C L) [1]: 0.14 µM | Lethal concentration (C L) [2]: 5.20 µM | Lethal concentration (C L) [3]: 10.40 µM | Lethal concentration (C L) [4]: 2.01 µM | Lethal concentration (C L) [5]: 0.49 µM | Lethal concentration (C L) [6]: 0.62 µM | Lethal concentration (C L) [7]: 1.00 µM | Lethal concentration (C L) [8]: 4.28 µM | Lethal concentration (C L) [9]: 0.74 µM | Lethal concentration (C L) [10]: 0.14 µM | Lethal concentration (C L) [11]: 2.89 µM | Lethal concentration (C L) ([12]; AMSIN alone): 0.11 µM | Lethal concentration (C L) ([12]; In combination with HNP1&2): 0.038 ^a µM | Lethal concentration (C L) ([12]; In combination with hLZc): 0.045 ^b µM | Lethal concentration (C L) [13]: 1.14 µM | Lethal concentration (C L) [14]: < 0.14 µM | Lethal concentration (C L) [15]: 0.09 µM | Lethal concentration (C L) [16]: 2.60 µM | Lethal concentration (C L) [17]: 4.65 µM | Cytoplasmic accumulation of UMP (MRSA P1374): accumulated
